{"source": "patent US20180116983A1", "about": "“COMPOUNDS FOR TREATING DISORDERS ASSOCIATED WITH BK CHANNEL MODULATION” (Canbex Therapeutics Limited, priority 2015, published 2018)", "key": {"BK channel": {"target": "BK channel (Homo sapiens, UniProt Q12791)", "sequence (Q12791 1-1178 isoform Q12791-5)": "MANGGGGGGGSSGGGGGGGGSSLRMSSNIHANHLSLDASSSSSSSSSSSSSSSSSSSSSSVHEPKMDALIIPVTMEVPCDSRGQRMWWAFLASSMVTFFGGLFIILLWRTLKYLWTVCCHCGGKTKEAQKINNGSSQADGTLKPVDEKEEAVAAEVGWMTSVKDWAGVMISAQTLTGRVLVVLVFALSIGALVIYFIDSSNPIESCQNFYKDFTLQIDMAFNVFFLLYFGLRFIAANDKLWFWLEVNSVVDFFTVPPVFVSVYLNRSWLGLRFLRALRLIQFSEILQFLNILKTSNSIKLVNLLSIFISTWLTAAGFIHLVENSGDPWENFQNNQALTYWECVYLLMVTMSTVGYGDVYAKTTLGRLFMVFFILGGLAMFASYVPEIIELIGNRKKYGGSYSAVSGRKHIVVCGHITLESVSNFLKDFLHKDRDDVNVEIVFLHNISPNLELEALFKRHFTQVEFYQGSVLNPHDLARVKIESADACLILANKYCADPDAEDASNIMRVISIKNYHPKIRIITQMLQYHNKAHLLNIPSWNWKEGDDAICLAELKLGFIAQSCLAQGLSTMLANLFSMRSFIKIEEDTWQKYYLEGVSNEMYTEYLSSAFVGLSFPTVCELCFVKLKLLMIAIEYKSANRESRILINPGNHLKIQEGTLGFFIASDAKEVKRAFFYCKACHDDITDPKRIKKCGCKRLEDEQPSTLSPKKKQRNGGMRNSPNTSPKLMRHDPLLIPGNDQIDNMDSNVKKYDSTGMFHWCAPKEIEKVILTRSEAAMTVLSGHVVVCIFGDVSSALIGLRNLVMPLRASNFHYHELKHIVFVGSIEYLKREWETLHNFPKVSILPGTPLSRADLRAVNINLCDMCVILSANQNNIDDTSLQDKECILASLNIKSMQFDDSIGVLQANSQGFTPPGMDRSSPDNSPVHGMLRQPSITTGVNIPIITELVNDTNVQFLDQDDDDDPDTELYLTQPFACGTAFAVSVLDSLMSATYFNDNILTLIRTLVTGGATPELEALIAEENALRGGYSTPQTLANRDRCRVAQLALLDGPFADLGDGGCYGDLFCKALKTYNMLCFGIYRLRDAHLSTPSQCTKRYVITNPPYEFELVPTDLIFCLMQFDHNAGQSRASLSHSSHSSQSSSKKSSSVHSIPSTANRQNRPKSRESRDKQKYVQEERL", "sequence (Q86W47 whole entry partner)": "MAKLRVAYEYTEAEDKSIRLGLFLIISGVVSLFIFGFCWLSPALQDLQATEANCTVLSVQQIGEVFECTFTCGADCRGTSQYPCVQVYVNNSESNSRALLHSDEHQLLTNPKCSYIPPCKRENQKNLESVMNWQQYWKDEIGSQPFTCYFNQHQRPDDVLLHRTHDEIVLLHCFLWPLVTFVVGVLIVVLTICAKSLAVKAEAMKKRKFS", "experiment": "Whole-cell patch clamp, BK current and membrane potential in EA.hy926 cells", "assay_type": "cell-based", "set-up": "The human umbilical vein derived endothelial cell line, EA.hy926; endogenous in cells; host or cells: EA.hy926 human endothelial cell line", "experimental": "The human umbilical vein derived endothelial cell line, EA.hy926 (Edgell et al., Proc Natl Acad Sci USA. 1983 June; 80(12): 3734-7) at passage >45 was grown in DMEM containing 10% FCS and 1% HAT (5 mM hypoxanthine, 20 μM aminopterin, 0.8 mM thymidine) and cells were maintained in an incubator at 37° C. in 5% CO2 atmosphere. Cells were plated on either 10 mm (for patch-clamp recordings) or 30 mm glass cover slips (for Ca^2+ measurements).\nMembrane potential of EA.hy926 cells was recorded using the perforated patch clamp technique as described previously (Bondarenko et al, 2010, Br. J. Pharmacol. 161, 308-320). For membrane potential recordings from EA.hy926 cells the standard bath solution contained (in mM): 140 NaCl, 5 KCl, 1.2 MgCl2, 10 HEPES, 10 glucose, 2.4 CaCl2, patch pipettes were filled with a solution containing (in mmol/L): 140 KCl; 0.2 EGTA; 10 HEPES (pH adjusted to 7.2 using KOH). The resistance of the pipettes was 3-5 MΩ for whole cell and 6-8 MΩ for single channel recordings."}, "mouse vas deferens": {"tested_on": "mouse vas deferens", "experiment": "βγ-methylene ATP-induced contraction of mouse vas deferens", "conditions": "100 nM; electrically unstimulated vasa deferentia", "experimental": "Mouse vas deferens were treated with either DMSO vehicle or 100 nM VSN16R 30 min before the first organ bath injection of various concentrations of βγ-methylene ATP into the organ bath (FIG. 16). The results represent the mean±SEM of βγ-methylene ATP-induced increases in tension (expressed in grams) of electrically unstimulated vasa deferentia. (n=6/group)."}, "[1]": {"experiment": "Tolerability on repeated dosing", "assay_type": "in vivo, mouse"}, "[2]": {"target": "T1, BKCa channels formed by the exon-less alpha subunit (Homo sapiens, UniProt Q12791)", "T1 construct": "expressed in transfected cells; host or cells: HEK293", "T1 sequence (Q12791 1-1178 isoform Q12791-5)": "as the sequence (Q12791 1-1178 isoform Q12791-5) above", "experiment": "Whole-cell BKCa current in HEK293 cells expressing the alpha subunit alone", "assay_type": "cell-based", "conditions": "20 μM"}, "mesenteric arteries": {"tested_on": "mesenteric arteries", "conditions": "cited from earlier work"}, "[3]": {"experiment": "Known efficacious oral dose (model not stated)", "assay_type": "in vivo", "conditions": "p.o."}, "[4]": {"experiment": "Intraocular pressure (IOP) after topical application", "assay_type": "in vivo, rats", "conditions": "for IOP, mean: BL 11.18", "experimental": "The effect of VSN16R on IOP was measured using the techniques described in the literature (Guo L. et aI, Investigative Ophthalmology & Visual Science, January 2005, Vol 46, No. 1 p 175-182; Guo L. et al, Investigative Ophthalmology & Visual Science, February 2006, Vol 47, No. 2 p 626-633; Cordeiro F. et al, PNAS, Aug. 14, 2007; Vol 104; No. 33, p 13444-13449; Cordeiro F. et al, PNAS, Sep. 7, 2004; Vol 101; No. 36, p 13352-13356)."}, "[5]": {"tested_on": "C57BL/6.Fmr1 knockout mice", "experiment": "Contextual fear conditioning in Fmr1 knockout mice", "assay_type": "in vivo, mouse", "conditions": "Fmr1 knockout mice, 2 mg/kg i.v.", "experimental": "Animals: C57BL/6.J. Fmr1-K02 mice, which have a deletion of the promoter and exonl of the Fmr1 gene (Mientjes et al., 2006) and C57BL/6J wild type (WT) were originated from the Jackson laboratory (Ann Harbor, USA). Mice were housed in groups (4-6 per cage) and all animals were provided with ad libitum food and water unless otherwise stated. Mice were maintained on a 12 h light/12 h dark cycle (lights off 19:00 to 7:00) in a temperature-controlled environment (21±1° C.). Testing was conducted in the light phase. Mice were housed in commercial cages and experiments were performed in line with the United Kingdom Animals (Scientific procedures) Act 1986. All experiments were conducted with experimentors blind to genotype and drug treatment. Each experimental group contained 10 animals.\nDrug Treatment: VSN16R was dissolved in saline for injection intravenously via a tail vein using 2 mg/kg a 30 g needle in a volume of 0.1 ml. Animals were inspected for differences in coat appearance, to detect whether any piloerection was present. The eye condition (runny eyes or porphyria, ptosis), gait appearance, tremor, tail tone, reactivity to handling was assessed to detect adverse behavioural effect.\nContextual fear conditioning: Animals are trained to expect an electroshock treatment within a defined environment, such that on subsequent presentation of the environment, freezing behaviours are induced. […]"}}, "note": "“Also recorded” adds a separate entry of the source.", "data": [{"smiles": "C[C@H](CO)NC(=O)c1cccc(/C=C\\CCCC(=O)N(C)C)c1", "note": "[VSN16R]", "values": [{"measurement": "membrane potential", "setting": "BK channel; EA.hy926 cells", "value": "induces sustained hyperpolarisation"}, {"measurement": "whole-cell BK current", "setting": "BK channel; human EA.hy926 cells, current blocked by paxilline", "value": "induces a BKca specific current; also recorded: induces currents that are sensitive to paxilline"}, {"measurement": "effect on βγ-methylene ATP-induced contraction", "setting": "mouse vas deferens", "value": "does not affect"}, {"measurement": "tolerability", "setting": "[1]; 2 mg/kg i.v. over 2 weeks", "value": "well tolerated and no instances of toxicity were observed; also recorded: well tolerated"}, {"measurement": "tolerable dose", "setting": "[1]; daily, p.o.", "value": "≥ 1000", "unit": "mg/kg"}, {"measurement": "enhancement of BKCa current", "setting": "[2]; HEK293, steps −40 mV to +70 mV, 200 nM calcium", "value": "not responsive; also recorded: does not act on BKCa channels formed by the exon-less alpha subunit; also recorded: did not display any enhancing effect on the current; also recorded: did not affect the BKCa current at any voltage; also recorded: did not enhance BKCa currents"}, {"measurement": "activation voltage / voltage-dependence of activation of BKCa current", "setting": "[2]; intracellular calcium 1 μM, 200 nM, nominally 0 M", "value": "did not shift the voltage-depence of activation; also recorded: did not affect the activation voltage of BKCa current"}, {"measurement": "action on smooth muscle carrying the β1 subunit", "setting": "mesenteric arteries", "value": "does not act on smooth muscle"}, {"measurement": "known efficacy dose", "setting": "[3]", "value": "≥ 1", "unit": "mg/kg"}, {"measurement": "IOP, mean", "setting": "[4]; 0.5 h after VSN16R, p<0.05", "value": 9.82, "unit": "mmHg"}, {"measurement": "IOP, mean", "setting": "[4]; 1 h after VSN16R, not significant", "value": 10.79, "unit": "mmHg"}, {"measurement": "effect on intraocular pressure", "setting": "[4]; topical to the eye, normal rats", "value": "reduces intraocular pressure"}, {"measurement": "fear conditioning (freezing)", "setting": "[5]", "value": "inhibits the development of fear conditioning; also recorded: significantly (P<0.001) limited the exaggerated behaviour"}]}]}
